Data: patent US10851082B2, “Substituted aromatic n-heterocyclic compounds as inhibitors of mitogen-activated protein kinase interacting kinase 1 (MNK1) and 2 (MNK2)” (Northwestern University, priority 2015, dated 2020)
Read-outs that look alike come from different tables or passages of the source.

Legend:
[1] = target: Mnk1 (Homo sapiens (Human), UniProt Q9BUB5); assay: Mnk1 kinase inhibition, ADP-Glo ADP monitoring assay; format: biochemical; settings: for IC50: read-out: Mnk1 inhibition IC50 (+,++,+++)
Procedure: (§1) The synthesized compounds then were tested for inhibition of the kinase activity (IC50) of Mnk1 and/or Mnk2 using the ADP monitoring assay for kinases described in Zegzouti, H.; Zdanovskaia, M.; Hsiao, K.; Goueli, S. A., ADP-Glo: A Bioluminescent and homogeneous ADP monitoring assay for kinases.

[2] = target: Mnk2 (Homo sapiens (Human), UniProt Q9HBH9); assay: Mnk2 kinase inhibition, ADP-Glo ADP monitoring assay; format: biochemical
Procedure: as §1

[3] = ADP-Glo kinase assay, read-out: Mnk2 inhibition IC50 (+,++,+++)

Chain of Mnk2 (Q9HBH9 whole entry): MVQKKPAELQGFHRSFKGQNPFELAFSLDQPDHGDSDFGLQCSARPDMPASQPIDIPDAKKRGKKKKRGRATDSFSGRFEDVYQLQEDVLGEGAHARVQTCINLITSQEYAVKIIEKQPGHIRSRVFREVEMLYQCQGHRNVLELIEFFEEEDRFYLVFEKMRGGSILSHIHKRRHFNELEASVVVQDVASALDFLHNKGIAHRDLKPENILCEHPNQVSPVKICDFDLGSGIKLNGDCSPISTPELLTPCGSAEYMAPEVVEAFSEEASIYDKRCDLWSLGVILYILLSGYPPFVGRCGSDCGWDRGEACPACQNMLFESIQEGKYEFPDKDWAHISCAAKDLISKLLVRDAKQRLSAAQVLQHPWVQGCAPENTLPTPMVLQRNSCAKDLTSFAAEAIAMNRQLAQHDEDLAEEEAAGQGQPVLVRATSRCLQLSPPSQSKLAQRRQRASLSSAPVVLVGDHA
Chain of Mnk1 (Q9BUB5 whole entry): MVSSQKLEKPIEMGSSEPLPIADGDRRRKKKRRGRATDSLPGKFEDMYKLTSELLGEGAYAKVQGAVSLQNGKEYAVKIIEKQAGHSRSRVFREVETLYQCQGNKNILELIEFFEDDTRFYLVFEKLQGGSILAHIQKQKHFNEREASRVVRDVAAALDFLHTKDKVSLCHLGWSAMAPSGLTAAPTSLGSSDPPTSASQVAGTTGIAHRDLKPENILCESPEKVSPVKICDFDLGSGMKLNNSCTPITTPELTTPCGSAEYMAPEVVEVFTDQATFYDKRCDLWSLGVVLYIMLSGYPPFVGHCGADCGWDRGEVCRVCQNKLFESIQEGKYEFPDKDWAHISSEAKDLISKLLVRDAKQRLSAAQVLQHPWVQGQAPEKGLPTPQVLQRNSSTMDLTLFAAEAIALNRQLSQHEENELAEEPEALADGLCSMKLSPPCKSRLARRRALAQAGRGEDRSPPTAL

| Structure (SMILES) | IC50 [1] [nM] | IC50 [2, 3] [nM] | Mnk1 inhibition IC50 (+,++,+++) [1] | Mnk2 inhibition IC50 (+,++,+++) ([2]; ADP-Glo kinase assay) | IC50 [2] [nM] |
| --- | --- | --- | --- | --- | --- |
| Clc1cnc(OCCN2CCOCC2)nc1-n1cnc2ccccc21 [NUCC-0200806] | 1000 to 10000 | < 1000 |  |  |  |
| COc1ccc(Oc2ncc(Cl)c(-n3cnc4ccccc43)n2)cc1 [NUCC-0200809] |  |  | no activity | no activity |  |
| N#Cc1cnc(OCc2cccnc2)nc1-n1cnc2ccccc21 [NUCC-0200903] | < 1000 | < 1000 |  |  |  |
| N#Cc1cnc(OC2CCc3cccnc32)nc1-n1cnc2ccccc21 (stereo not drawn) [NUCC-0200905] | > 10000 |  |  |  | 1000 to 10000 |
| N#Cc1cnc(-n2cnc3ccccc32)nc1OC1CCc2cccnc21 (stereo not drawn) [NUCC-0200906] | 1000 to 10000 | < 1000 |  |  |  |
| Cc1ccc2c(c1)ncn2-c1ncc(Cl)c(NCCc2ccncc2)n1 [NUCC-0200909] | < 1000 | < 1000 |  |  |  |
| Clc1cnc(NCCc2ccncc2)nc1-n1ccc2c(Cl)ncnc21 [NUCC-0200911] | > 10000 | > 10000 |  |  |  |
| N#Cc1cnc(NCCCc2ccncc2)nc1-n1cnc2ccccc21 [NUCC-0200913] | > 10000 | > 10000 |  |  |  |
| NC1CC(Oc2ncc(Cl)c(-n3cnc4ccccc43)n2)C1 (stereo not drawn) [NUCC-0201004] | < 1000 | < 1000 |  |  |  |
| N#Cc1cnc(OCCc2cccnc2)nc1-n1cnc2ccccc21 [NUCC-0201005] | 1000 to 10000 |  |  |  | 1000 to 10000 |
| Clc1cnc(NC2CCN(c3nccn4ccnc34)C2)nc1-n1cnc2ccccc21 (stereo not drawn) [NUCC-0201015] | 1000 to 10000 |  |  |  | 1000 to 10000 |
| Cc1nc2ccccc2n1-c1nc(OC2CC(N(C)C)C2)ncc1Cl (stereo not drawn) [NUCC-0201016, 3-((5-chloro-4-(2-methyl-1H-benzo[d]imidazol-1-yl)pyrimidin-2-yl)oxy)-N,N-dimethylcyclobutanamine] | 1000 to 10000 |  |  |  | 1000 to 10000 |
| CC1=C(Oc2ncc(Cl)c(-n3cnc4ccccc43)n2)C(=O)CO1 [NUCC-0201019] | 1000 to 10000 |  |  |  | 1000 to 10000 |
| Clc1cccc(CCOc2ncc(Cl)c(-n3cnc4ccccc43)n2)n1 [NUCC-0201021] | < 1000 | < 1000 |  |  |  |
| Clc1cc(Cl)nc(CCOc2ncc(Cl)c(-n3cnc4ccccc43)n2)c1 [NUCC-0201022] | 1000 to 10000 |  |  |  | 1000 to 10000 |
| Fc1cc(CCOc2ncc(Cl)c(-n3cnc4ccccc43)n2)ccn1 [NUCC-0201046, 1-(5-chloro-2-(2-(2-fluoropyridin-4-yl)ethoxy)pyrimidin-4-yl)-1H-benzo[d]imidazole] | < 1000 | < 1000 |  |  |  |

Next, values leading:

| IC50 [1] [nM] | IC50 [2, 3] [nM] | Mnk1 inhibition IC50 (+,++,+++) [1] | Mnk2 inhibition IC50 (+,++,+++) ([2]; ADP-Glo kinase assay) | IC50 [2] [nM] | Structure (SMILES) |
| --- | --- | --- | --- | --- | --- |
| < 1000 | < 1000 |  |  |  | Clc1cnc(OC2CCOC2)nc1-n1cnc2ccccc21 (stereo not drawn) [NUCC-0200805] |
|  |  | no activity | no activity |  | Clc1cnc(Oc2cccnc2)nc1-n1cnc2ccccc21 [NUCC-0200810, 1-(5-chloro-2-(pyridin-3-yloxy)pyrimidin-4-yl)-1H-benzo[d]imidazole] |
| < 1000 | < 1000 |  |  |  | N#Cc1cnc(OCc2ccccn2)nc1-n1cnc2ccccc21 [NUCC-0200902] |
| 1000 to 10000 |  |  |  | 1000 to 10000 | N#Cc1cnc(OCc2ccncc2)nc1-n1cnc2ccccc21 [NUCC-0200904] |
| > 10000 |  |  |  | 1000 to 10000 | Cc1ccc2c(c1)ncn2-c1nc(NCCc2ccncc2)ncc1Cl [NUCC-0200908] |
| > 10000 | < 1000 |  |  |  | COc1ccc2c(c1)ncn2-c1nc(NCCc2ccncc2)ncc1Cl [NUCC-0200910] |
| > 10000 |  |  |  | 1000 to 10000 | Clc1cnc(NCCCc2ccncc2)nc1-n1cnc2ccccc21 [NUCC-0200912] |
| < 1000 | < 1000 |  |  |  | Clc1cnc(OCCC2CCNCC2)nc1-n1cnc2ccccc21 [NUCC-0201002] |
| 1000 to 10000 |  |  |  | 1000 to 10000 | OC1CC(Nc2ncc(Cl)c(-n3cnc4ccccc43)n2)C1 (stereo not drawn) [NUCC-0201003] |
| 1000 to 10000 |  |  |  | 1000 to 10000 | NC1CCN(c2ncc(Cl)c(-n3cnc4ccccc43)n2)C1 (stereo not drawn) [NUCC-0201006] |
| < 1000 | < 1000 |  |  |  | Clc1cnc(NC2CCNC2)nc1-n1cnc2ccccc21 (stereo not drawn) [NUCC-0201007] |
| < 1000 | < 1000 |  |  |  | CC1(C)COC(=O)C1Oc1ncc(Cl)c(-n2cnc3ccccc32)n1 (stereo not drawn) [NUCC-0201017] |
| 1000 to 10000 |  |  |  | 1000 to 10000 | CC1=C(Oc2ncc(Cl)c(-n3cnc4ccccc43)n2)C(=O)C(C)O1 (stereo not drawn) [NUCC-0201018] |
| 1000 to 10000 |  |  |  | 1000 to 10000 | FC(F)(F)c1cc(Cl)c2ncn(-c3nc(OCCc4ccccn4)ncc3Cl)c2c1 [NUCC-0201020] |
| < 1000 | < 1000 |  |  |  | N[C@H]1C[C@@H](Oc2ncc(Cl)c(-n3cnc4ccccc43)n2)C1 [NUCC-0201047] |
| < 1000 | < 1000 |  |  |  | Clc1cnc(OC2CCC2)nc1-n1cnc2ccccc21 [NUCC-0201048] |
| 1000 to 10000 |  |  |  | 1000 to 10000 | Clc1cnc(NC2CCC2)nc1-n1cnc2ccccc21 [NUCC-0201050] |
